Experimental data published in patent US20210115104A1, “AMYLIN ANALOGUES” (Zealand Pharma A/S, priority 2015, published 2021).
*1 amine or outer side, *2 acyl side, *3 side chain or, on linkers, in order; H or OH if unused. Where a SMILES comes first, the peptide text is derived from it. Bridges are numbered along the chain shown (N, C = ends). [ ]: non-standard residue; d: D form. The star is where a group is joined. C20 diacid = O=C(O)CCCCCCCCCCCCCCCCCCC(=O)*; γGlu = O=C(O)[C@H](CCC(=O)[*:2])N[*:1]; NMeI = CC[C@H](C)[C@H](NC)C(=O)O; Sar = CNCC(=O)O

Columns and labels:
[1] = target: T1, human calcitonin receptor (hCTR2) (Homo sapiens, UniProt P30988); assay: hCTR2 cAMP assay (AlphaScreen) in COS7 cells; type: cell-based; conditions: cAMP induction, COS7 cells expressing hCTR2; Table 1; read-out: hCTR2 EC50
T1 construct: expressed in transfected cells
T1 sequence (P30988 25-474): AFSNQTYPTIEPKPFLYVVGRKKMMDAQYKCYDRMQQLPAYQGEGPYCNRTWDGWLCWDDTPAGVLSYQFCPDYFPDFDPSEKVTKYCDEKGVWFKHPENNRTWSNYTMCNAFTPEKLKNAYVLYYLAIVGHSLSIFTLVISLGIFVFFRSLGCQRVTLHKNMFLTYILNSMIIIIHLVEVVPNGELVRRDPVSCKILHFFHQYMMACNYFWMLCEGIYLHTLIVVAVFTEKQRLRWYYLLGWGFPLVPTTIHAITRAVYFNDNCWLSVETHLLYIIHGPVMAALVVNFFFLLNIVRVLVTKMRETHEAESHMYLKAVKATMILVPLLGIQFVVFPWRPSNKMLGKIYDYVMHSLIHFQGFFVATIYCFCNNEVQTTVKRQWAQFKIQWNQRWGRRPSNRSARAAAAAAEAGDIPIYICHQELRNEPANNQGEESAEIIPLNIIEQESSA
Procedure, shortened: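 cAMP induction, read by AlphaScreen after lysis, gives EC50 values via 4PL curve fitting. Peptides were applied at rising concentrations for 15 min at 37 °C, with IBMX and 0.1% casein in HEPES-buffered Tyrode pH 7.4, to COS7 cells (no endogenous RAMPs) stably expressing human CTR2.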

[2] = target: T2, human amylin receptor 3 (hAMYR3), hCTR2 co-expressed with hRAMP3 (Homo sapiens, UniProt O60896+P30988); assay: hAMYR3 cAMP assay (AlphaScreen) in COS7 cells; type: cell-based; conditions: cAMP induction, COS7 cells expressing hAMYR3; Table 1; read-out: hAMYR3 EC50
T2 construct: expressed in transfected cells
T2 sequence (P30988 25-474): T1 sequence (P30988 25-474)
T2 sequence (O60896 24-148 partner): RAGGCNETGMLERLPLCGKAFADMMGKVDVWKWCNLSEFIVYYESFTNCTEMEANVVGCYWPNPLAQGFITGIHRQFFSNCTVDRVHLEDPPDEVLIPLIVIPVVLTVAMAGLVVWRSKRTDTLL
Procedure, shortened: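 EC50 values derive from 4PL curve fits of cAMP (AlphaScreen) in lysates of RAMP-naive COS7 cells stably carrying hCTR2 plus hRAMP3. Peptide dilution series were applied for 15 min at 37 °C in pH 7.4 Tyrode buffer containing 100 µM IBMX and 0.1% casein.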

CC[C@H](C)[C@@H](C(=O)N[C@@H](CC(C)C)C(=O)N[C@@H](CO)C(=O)N[C@@H](CO)C(=O)N[C@H](C(=O)N[C@@H](CCC(=O)O)C(=O)N[C@H](C(=O)NCC(=O)N[C@@H](CO)C(=O)N[C@@H](Cc1ccccc1)C(=O)N[C@H](C(=O)N1CCC[C@H]1C(N)=O)[C@@H](C)O)C(C)C)[C@@H](C)O)N(C)C(=O)[C@H](C)NC(=O)CN(C)C(=O)[C@H](Cc1ccccc1)NC(=O)[C@H](CO)NC(=O)[C@H](CO)NC(=O)[C@H](CCCNC(=N)N)NC(=O)[C@H](CCC(N)=O)NC(=O)[C@H](CC(C)C)NC(=O)[C@H](Cc1ccccc1)NC(=O)[C@H](Cc1c[nH]cn1)NC(=O)[C@H](C)NC(=O)[C@H](CC(C)C)NC(=O)[C@H](CCCNC(=N)N)NC(=O)[C@H](CCC(=O)O)NC(=O)[C@@H](NC(=O)[C@H](C)NC(=O)[C@@H]1CSSC[C@H](NC(=O)[C@H](CCCNC(=N)N)NC(=O)CC[C@H](NC(=O)CCCCCCCCCCCCCCCCCCC(=O)O)C(=O)O)C(=O)NCC(=O)N[C@@H]([C@@H](C)O)C(=O)N[C@@H](C)C(=O)N[C@@H]([C@@H](C)O)C(=O)N1)[C@@H](C)O [Compound 39, [19CD]-isoGlu-R-C( )-GTAT-C( )-ATERLAHFLQRSSF-Gly(Me)-A-Ile(Me)-LSSTEVGSFTP-NH2] ({C20 diacid-γGlu}-RCGTATCATERLAHFLQRSSF[Sar]A[NMeI]LSSTEVGSFTP-NH2; disulfide 2-7)
EC50 [1]: 0.16 nM | EC50 [2]: 0.22 nM

CC[C@H](C)[C@@H](C(=O)N[C@@H](CC(C)C)C(=O)N[C@@H](CO)C(=O)N[C@@H](CO)C(=O)N[C@H](C(=O)N[C@@H](CCC(=O)O)C(=O)N[C@H](C(=O)NCC(=O)N[C@@H](CO)C(=O)N[C@@H](Cc1ccccc1)C(=O)N[C@H](C(=O)N1CCC[C@H]1C(N)=O)[C@@H](C)O)C(C)C)[C@@H](C)O)N(C)C(=O)[C@H](C)NC(=O)CN(C)C(=O)[C@H](Cc1ccccc1)NC(=O)[C@H](CO)NC(=O)[C@H](CO)NC(=O)[C@H](CCCNC(=N)N)NC(=O)[C@H](CC(N)=O)NC(=O)[C@H](CC(C)C)NC(=O)[C@H](Cc1ccccc1)NC(=O)[C@H](Cc1c[nH]cn1)NC(=O)[C@H](C)NC(=O)[C@H](CC(C)C)NC(=O)[C@H](CCCNC(=N)N)NC(=O)[C@H](CCC(=O)O)NC(=O)[C@@H](NC(=O)[C@H](C)NC(=O)[C@@H]1CSSC[C@H](NC(=O)[C@H](CCCNC(=N)N)NC(=O)CC[C@H](NC(=O)CCCCCCCCCCCCCCCCCCC(=O)O)C(=O)O)C(=O)NCC(=O)N[C@@H]([C@@H](C)O)C(=O)N[C@@H](C)C(=O)N[C@@H]([C@@H](C)O)C(=O)N1)[C@@H](C)O [Compound 40, [19CD]-isoGlu-R-C( )-GTAT-C( )-ATERLAHFLNRSSF-Gly(Me)-A-Ile(Me)-LSSTEVGSFTP-NH2] ({C20 diacid-γGlu}-RCGTATCATERLAHFLNRSSF[Sar]A[NMeI]LSSTEVGSFTP-NH2; disulfide 2-7)
EC50 [1]: 0.12 nM | EC50 [2]: 0.19 nM
